Data from patent publication US5672715A, “Herbicidal substituted 3-aryl-pyrazoles” (Monsanto Company, priority 1995, dated 1997).

What was measured:
Assay type in all cases: in vivo
Barnyardgrass [1] = assay: pre-emergence herbicide test; settings: Echinochloa crus-galli, pre-emergence, 0.25 lb/A; read-out: % plant inhibition
Procedure, shortened: (§1)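 Soil-applied pre-emergence screen: compound added to cover topsoil over sown seeds, pans held on greenhouse bench with subirrigation, % inhibition scored ~2 weeks later.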

Bedstraw Catchweed [2] = assay: pre-emergence herbicide test; settings: Galium aparine, pre-emergence, 0.25 lb/A; read-out: % plant inhibition
Procedure, shortened: as §1

Birdseye Speedwell [3] = assay: pre-emergence herbicide test; settings: pre-emergence, 0.25 lb/A; read-out: % plant inhibition
Procedure, shortened: as §1

Blackgrass [4] = assay: pre-emergence herbicide test; settings: Alopecurus myosuroides, pre-emergence, 0.25 lb/A; read-out: % plant inhibition
Procedure, shortened: as §1

Cocklebur [5] = assay: pre-emergence herbicide test; settings: Xanthium strumarium, pre-emergence, 0.25 lb/A; read-out: % plant inhibition
Procedure, shortened: as §1

Common Chickweed [6] = assay: pre-emergence herbicide test; settings: pre-emergence, 0.25 lb/A; read-out: % plant inhibition
Procedure, shortened: as §1

Corn [7] = assay: pre-emergence herbicide test; settings: Zea mays, pre-emergence, 0.25 lb/A; read-out: % plant inhibition
Procedure, shortened: as §1

Downy Brome [8] = assay: pre-emergence herbicide test; settings: Bromus tectorum, pre-emergence, 0.25 lb/A; read-out: % plant inhibition
Procedure, shortened: as §1

Giant Foxtail [9] = assay: pre-emergence herbicide test; settings: Setaria faberi, pre-emergence, 0.25 lb/A; read-out: % plant inhibition
Procedure, shortened: as §1

Green Foxtail [10] = assay: pre-emergence herbicide test; settings: Setaria viridis, pre-emergence; 0.25 lb/A; read-out: % plant inhibition
Procedure, shortened: as §1

Morning Glory [11] = assay: pre-emergence herbicide test; settings: Ipomoea, pre-emergence, 0.25 lb/A; read-out: % plant inhibition
Procedure, shortened: as §1

Rape [12] = assay: pre-emergence herbicide test; settings: pre-emergence, 0.25 lb/A; read-out: % plant inhibition
Procedure, shortened: as §1

Seedling Johnsongrass [13] = assay: pre-emergence herbicide test; settings: Sorghum halepense, pre-emergence, 0.25 lb/A; read-out: % plant inhibition
Procedure, shortened: as §1

Soybean [14] = assay: pre-emergence herbicide test; settings: Glycine max, pre-emergence, 0.25 lb/A; read-out: % plant inhibition
Procedure, shortened: as §1

Velvetleaf [15] = assay: pre-emergence herbicide test; settings: Abutilon theophrasti, pre-emergence, 0.25 lb/A; read-out: % plant inhibition
Procedure, shortened: as §1

Wheat [16] = assay: pre-emergence herbicide test; settings: Triticum aestivum, pre-emergence, 0.25 lb/A; read-out: % plant inhibition
Procedure, shortened: as §1

Wild Oats [17] = assay: pre-emergence herbicide test; settings: Avena fatua, pre-emergence, 0.25 lb/A; read-out: % plant inhibition
Procedure, shortened: as §1

Barnyardgrass [18] = assay: post-emergence herbicide test; settings: Echinochloa crus-galli, post-emergence, 0.25 lb/A; read-out: % plant inhibition
Procedure, shortened: (§2)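 Herbicidal effect measured as percent inhibition of each plant species after spraying. Application: atomizer, 170.3 kPa, 1870 L/Ha, about 0.4% emulsifier, to plants aged two to three weeks in greenhouse soil pans.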

Bedstraw Catchweed [19] = assay: post-emergence herbicide test; settings: Galium aparine, post-emergence, 0.25 lb/A; read-out: % plant inhibition
Procedure, shortened: as §2

Birdseye Speedwell [20] = assay: post-emergence herbicide test; settings: post-emergence, 0.25 lb/A; read-out: % plant inhibition
Procedure, shortened: as §2

Blackgrass [21] = assay: post-emergence herbicide test; settings: Alopecurus myosuroides, post-emergence, 0.25 lb/A; read-out: % plant inhibition
Procedure, shortened: as §2

Cocklebur [22] = assay: post-emergence herbicide test; settings: Xanthium strumarium, post-emergence, 0.25 lb/A; read-out: % plant inhibition
Procedure, shortened: as §2

Common Chickweed [23] = assay: post-emergence herbicide test; settings: post-emergence, 0.25 lb/A; read-out: % plant inhibition
Procedure, shortened: as §2

Corn [24] = assay: post-emergence herbicide test; settings: Zea mays, post-emergence, 0.25 lb/A; read-out: % plant inhibition
Procedure, shortened: as §2

Downy Brome [25] = assay: post-emergence herbicide test; settings: Bromus tectorum, post-emergence, 0.25 lb/A; read-out: % plant inhibition
Procedure, shortened: as §2

Giant Foxtail [26] = assay: post-emergence herbicide test; settings: Setaria faberi, post-emergence, 0.25 lb/A; read-out: % plant inhibition
Procedure, shortened: as §2

Green Foxtail [27] = assay: post-emergence herbicide test; settings: Setaria viridis, post-emergence, 0.25 lb/A; read-out: % plant inhibition
Procedure, shortened: as §2

Morning Glory [28] = assay: post-emergence herbicide test; settings: Ipomoea, post-emergence, 0.25 lb/A; read-out: % plant inhibition
Procedure, shortened: as §2

Rape [29] = assay: post-emergence herbicide test; settings: post-emergence, 0.25 lb/A; read-out: % plant inhibition
Procedure, shortened: as §2

Seedling Johnsongrass [30] = assay: post-emergence herbicide test; settings: Sorghum halepense, post-emergence, 0.25 lb/A; read-out: % plant inhibition
Procedure, shortened: as §2

Soybean [31] = assay: post-emergence herbicide test; settings: Glycine max, post-emergence, 0.25 lb/A; read-out: % plant inhibition
Procedure, shortened: as §2

Velvetleaf [32] = assay: post-emergence herbicide test; settings: Abutilon theophrasti, post-emergence, 0.25 lb/A; read-out: % plant inhibition
Procedure, shortened: as §2

Wheat [33] = assay: post-emergence herbicide test; settings: Triticum aestivum, post-emergence, 0.25 lb/A; read-out: % plant inhibition
Procedure, shortened: as §2

Wild Oats [34] = assay: post-emergence herbicide test; settings: Avena fatua, post-emergence, 0.25 lb/A; read-out: % plant inhibition
Procedure, shortened: as §2

Compound	inhibition at 280.212 g/ha (Barnyardgrass [1]) [%]	inhibition at 280.212 g/ha (Bedstraw Catchweed [2]) [%]	inhibition at 280.212 g/ha (Birdseye Speedwell [3]) [%]	inhibition at 280.212 g/ha (Blackgrass [4]) [%]	inhibition at 280.212 g/ha (Cocklebur [5]) [%]	inhibition at 280.212 g/ha (Common Chickweed [6]) [%]	inhibition at 280.212 g/ha (Corn [7]) [%]	inhibition at 280.212 g/ha (Downy Brome [8]) [%]	inhibition at 280.212 g/ha (Giant Foxtail [9]) [%]	inhibition at 280.212 g/ha (Green Foxtail [10]) [%]	inhibition at 280.212 g/ha (Morning Glory [11]) [%]	inhibition at 280.212 g/ha (Rape [12]) [%]	inhibition at 280.212 g/ha (Seedling Johnsongrass [13]) [%]	inhibition at 280.212 g/ha (Soybean [14]) [%]	inhibition at 280.212 g/ha (Velvetleaf [15]) [%]	inhibition at 280.212 g/ha (Wheat [16]) [%]	inhibition at 280.212 g/ha (Wild Oats [17]) [%]	inhibition at 280.212 g/ha (Barnyardgrass [18]) [%]	inhibition at 280.212 g/ha (Bedstraw Catchweed [19]) [%]	inhibition at 280.212 g/ha (Birdseye Speedwell [20]) [%]	other results
Cc1c(-c2cc(CSC(C)C)c(Cl)cc2F)nn(C)c1C(F)(F)F [Compound 29]	80	70	70	40	15	90	30	10	95	95	65	15	100	20	70	0	15	90	100	100	inhibition at 280.212 g/ha (Blackgrass [21]): 70%; inhibition at 280.212 g/ha (Cocklebur [22]): 90%; inhibition at 280.212 g/ha (Common Chickweed [23]): 95%; inhibition at 280.212 g/ha (Corn [24]): 20%; inhibition at 280.212 g/ha (Downy Brome [25]): 70%; inhibition at 280.212 g/ha (Giant Foxtail [26]): 65%; inhibition at 280.212 g/ha (Green Foxtail [27]): 95%; inhibition at 280.212 g/ha (Morning Glory [28]): 90%; inhibition at 280.212 g/ha (Rape [29]): 100%; inhibition at 280.212 g/ha (Seedling Johnsongrass [30]): 90%; inhibition at 280.212 g/ha (Soybean [31]): 90%; inhibition at 280.212 g/ha (Velvetleaf [32]): 99%; inhibition at 280.212 g/ha (Wheat [33]): 12%; inhibition at 280.212 g/ha (Wild Oats [34]): 75%
CCOC(=O)CCCOC(=O)c1cc(-c2nn(C)c(C(F)(F)F)c2C)c(F)cc1Cl [Compound 24]	20	95	100	50	40	100	0	30	35	100	0	95	10	0	60	7	15	15	65	95	inhibition at 280.212 g/ha (Blackgrass [21]): 25%; inhibition at 280.212 g/ha (Cocklebur [22]): 85%; inhibition at 280.212 g/ha (Common Chickweed [23]): 90%; inhibition at 280.212 g/ha (Corn [24]): 10%; inhibition at 280.212 g/ha (Downy Brome [25]): 25%; inhibition at 280.212 g/ha (Giant Foxtail [26]): 15%; inhibition at 280.212 g/ha (Green Foxtail [27]): 20%; inhibition at 280.212 g/ha (Morning Glory [28]): 75%; inhibition at 280.212 g/ha (Rape [29]): 25%; inhibition at 280.212 g/ha (Seedling Johnsongrass [30]): 20%; inhibition at 280.212 g/ha (Soybean [31]): 45%; inhibition at 280.212 g/ha (Velvetleaf [32]): 99%; inhibition at 280.212 g/ha (Wheat [33]): 20%; inhibition at 280.212 g/ha (Wild Oats [34]): 25%
Cc1c(-c2cc(C(=O)NC(C)C)c(Cl)cc2F)nn(C)c1C(F)(F)F [Compound 22]	95	100	100	85	25	100	5	40	98	100	5	90	97	25	40	6	85	30	45	40	inhibition at 280.212 g/ha (Blackgrass [21]): 5%; inhibition at 280.212 g/ha (Cocklebur [22]): 65%; inhibition at 280.212 g/ha (Common Chickweed [23]): 40%; inhibition at 280.212 g/ha (Corn [24]): 5%; inhibition at 280.212 g/ha (Downy Brome [25]): 15%; inhibition at 280.212 g/ha (Giant Foxtail [26]): 75%; inhibition at 280.212 g/ha (Green Foxtail [27]): 20%; inhibition at 280.212 g/ha (Morning Glory [28]): 40%; inhibition at 280.212 g/ha (Rape [29]): 10%; inhibition at 280.212 g/ha (Seedling Johnsongrass [30]): 60%; inhibition at 280.212 g/ha (Soybean [31]): 50%; inhibition at 280.212 g/ha (Velvetleaf [32]): 90%; inhibition at 280.212 g/ha (Wheat [33]): 0%; inhibition at 280.212 g/ha (Wild Oats [34]): 10%
